Measurements from ChEMBL document CHEMBL4138146, “A Schmidt rearrangement-mediated synthesis of novel tetrahydro-benzo[1,4]diazepin-5-ones as potential anticancer and antiprotozoal agents” (Eur J Med Chem, 2017).

Experiments:
Assay type in all cases: functional
DU-145 = assay: Growth inhibition of human DU145 cells assessed as cell growth at 10^-5 M incubated for 48 hrs by sulforhodamine B assay relative to control; settings: DU-145, 48 h, read-out: Activity
NCI-H460 [1] = assay: Growth inhibition of human NCI-H460 cells assessed as cell growth at 10^-8 M incubated for 48 hrs by sulforhodamine B assay relative to control; settings: NCI-H460, 48 h, read-out: Activity
RPMI-8226 = assay: Growth inhibition of human RPMI8226 cells assessed as cell growth at 10^-4 M incubated for 48 hrs by sulforhodamine B assay relative to control; settings: RPMI-8226, 48 h, read-out: Activity
OVCAR-3 [2] = assay: Growth inhibition of human OVCAR3 cells assessed as cell growth at 10^-7 M incubated for 48 hrs by sulforhodamine B assay relative to control; settings: OVCAR-3, 48 h, read-out: Activity
MDA-MB-468 = assay: Growth inhibition of human MDA-MB-468 cells assessed as cell growth at 10^-4 M incubated for 48 hrs by sulforhodamine B assay relative to control; settings: MDA-MB-468, 48 h, read-out: Activity
UO-31 [3] = assay: Growth inhibition of human UO31 cells assessed as cell growth at 10^-4 M incubated for 48 hrs by sulforhodamine B assay relative to control; settings: UO-31, 48 h, read-out: Activity
NCI-H460 [4] = assay: Growth inhibition of human NCI-H460 cells assessed as cell growth at 10^-4 M incubated for 48 hrs by sulforhodamine B assay relative to control; settings: NCI-H460, 48 h, read-out: Activity
T47D = assay: Growth inhibition of human T47D cells assessed as cell growth at 10^-5 M incubated for 48 hrs by sulforhodamine B assay relative to control; settings: read-out: Activity
OVCAR-5 = assay: Growth inhibition of human OVCAR5 cells assessed as cell growth at 10^-6 M incubated for 48 hrs by sulforhodamine B assay relative to control; settings: OVCAR-5, 48 h, read-out: Activity
NCI/ADR-RES = assay: Growth inhibition of human NCI/ADR-RES cells assessed as cell growth at 10^-8 M incubated for 48 hrs by sulforhodamine B assay relative to control; settings: read-out: Activity
HT-29 = assay: Growth inhibition of human HT-29 cells assessed as cell growth at 10^-4 M incubated for 48 hrs by sulforhodamine B assay relative to control; settings: HT-29, 48 h, read-out: Activity
NCI-H23 = assay: Growth inhibition of human NCI-H23 cells assessed as cell growth at 10^-4 M incubated for 48 hrs by sulforhodamine B assay relative to control; settings: NCI-H23, 48 h, read-out: Activity
OVCAR-3 [5] = assay: Growth inhibition of human OVCAR3 cells assessed as cell growth at 10^-6 M incubated for 48 hrs by sulforhodamine B assay relative to control; settings: OVCAR-3, 48 h, read-out: Activity
SK-MEL-5 [6] = assay: Growth inhibition of human SK-MEL-5 cells assessed as cell growth at 10^-4 M incubated for 48 hrs by sulforhodamine B assay relative to control; settings: SK-MEL-5, 48 h, read-out: Activity
HOP-92 = assay: Growth inhibition of human HOP92 cells assessed as cell growth at 10^-5 M incubated for 48 hrs by sulforhodamine B assay relative to control; settings: HOP-92, 48 h, read-out: Activity
SF-268 [7] = assay: Growth inhibition of human SF268 cells assessed as cell growth at 10^-6 M incubated for 48 hrs by sulforhodamine B assay relative to control; settings: SF-268, 48 h, read-out: Activity
LOX IMVI = assay: Growth inhibition of human LOXIMVI cells assessed as cell growth at 10^-7 M incubated for 48 hrs by sulforhodamine B assay relative to control; settings: read-out: Activity
SK-MEL-5 [8] = assay: Growth inhibition of human SK-MEL-5 cells assessed as cell growth at 10^-8 M incubated for 48 hrs by sulforhodamine B assay relative to control; settings: SK-MEL-5, 48 h, read-out: Activity
Hs-578T = assay: Growth inhibition of human Hs 578T cells assessed as cell growth at 10^-7 M incubated for 48 hrs by sulforhodamine B assay relative to control; settings: read-out: Activity
U-251 [9] = assay: Growth inhibition of human U251 cells assessed as cell growth at 10^-4 M incubated for 48 hrs by sulforhodamine B assay relative to control; settings: U-251, 48 h, read-out: Activity
SF-268 [10] = assay: Growth inhibition of human SF268 cells assessed as cell growth at 10^-4 M incubated for 48 hrs by sulforhodamine B assay relative to control; settings: SF-268, 48 h, read-out: Activity
COLO 205 = assay: Growth inhibition of human COLO205 cells assessed as cell growth at 10^-8 M incubated for 48 hrs by sulforhodamine B assay relative to control; settings: COLO 205, 48 h, read-out: Activity
SN12C [11] = assay: Growth inhibition of human SN12C cells assessed as cell growth at 10^-6 M incubated for 48 hrs by sulforhodamine B assay relative to control; settings: read-out: Activity
K562 = assay: Growth inhibition of human K562 cells assessed as cell growth at 10^-4 M incubated for 48 hrs by sulforhodamine B assay relative to control; settings: K562, 48 h, read-out: Activity
SF-295 = assay: Growth inhibition of human SF295 cells assessed as cell growth at 10^-6 M incubated for 48 hrs by sulforhodamine B assay relative to control; settings: SF-295, 48 h, read-out: Activity
NCI-H522 = assay: Growth inhibition of human NCI-H522 cells assessed as cell growth at 10^-4 M incubated for 48 hrs by sulforhodamine B assay relative to control; settings: NCI-H522, 48 h, read-out: Activity
U-251 [12] = assay: Growth inhibition of human U251 cells assessed as cell growth at 10^-8 M incubated for 48 hrs by sulforhodamine B assay relative to control; settings: U-251, 48 h, read-out: Activity
OVCAR-3 [13] = assay: Growth inhibition of human OVCAR3 cells assessed as cell growth at 10^-5 M incubated for 48 hrs by sulforhodamine B assay relative to control; settings: OVCAR-3, 48 h, read-out: Activity
SN12C [14] = assay: Growth inhibition of human SN12C cells assessed as cell growth at 10^-4 M incubated for 48 hrs by sulforhodamine B assay relative to control; settings: read-out: Activity
NCI-H226 = assay: Growth inhibition of human NCI-H226 cells assessed as cell growth at 10^-8 M incubated for 48 hrs by sulforhodamine B assay relative to control; settings: NCI-H226, 48 h, read-out: Activity
UO-31 [15] = assay: Growth inhibition of human UO31 cells assessed as cell growth at 10^-5 M incubated for 48 hrs by sulforhodamine B assay relative to control; settings: UO-31, 48 h, read-out: Activity
ACHN = assay: Growth inhibition of human ACHN cells assessed as cell growth at 10^-6 M incubated for 48 hrs by sulforhodamine B assay relative to control; settings: read-out: Activity
TK-10 = assay: Growth inhibition of human TK10 cells assessed as cell growth at 10^-4 M incubated for 48 hrs by sulforhodamine B assay relative to control; settings: TK-10, 48 h, read-out: Activity
HOP-62 = assay: Growth inhibition of human HOP62 cells assessed as cell growth at 10^-4 M incubated for 48 hrs by sulforhodamine B assay relative to control; settings: HOP-62, 48 h, read-out: Activity

## CCCCOc1nc2ccccc2cc1C1CNC(=O)c2ccccc2N1 (centres undefined)
DU-145
  growth at 10 µM: 5%
NCI-H460 [1]
  growth at 0.01 µM: 101%
RPMI-8226
  growth at 100 µM: -14%
OVCAR-3 [2]
  growth at 0.1 µM: 98%
MDA-MB-468
  growth at 100 µM: -43%
UO-31 [3]
  growth at 100 µM: -67%
NCI-H460 [4]
  growth at 100 µM: -73%
T47D
  growth at 10 µM: 36%
OVCAR-5
  growth at 1 µM: 98%
NCI/ADR-RES
  growth at 0.01 µM: 94%
HT-29
  growth at 100 µM: -61%
NCI-H23
  growth at 100 µM: -26%
OVCAR-3 [5]
  growth at 1 µM: 64%
SK-MEL-5 [6]
  growth at 100 µM: -24%
HOP-92
  growth at 10 µM: 21%
SF-268 [7]
  growth at 1 µM: 80%
LOX IMVI
  growth at 0.1 µM: 93%
SK-MEL-5 [8]
  growth at 0.01 µM: 93%
Hs-578T
  growth at 0.1 µM: 97%
U-251 [9]
  growth at 100 µM: -77%
SF-268 [10]
  growth at 100 µM: 1%
COLO 205
  growth at 0.01 µM: 96%
SN12C [11]
  growth at 1 µM: 84%
K562
  growth at 100 µM: -25%
SF-295
  growth at 1 µM: 59%
NCI-H522
  growth at 100 µM: -35%
U-251 [12]
  growth at 0.01 µM: 99%
OVCAR-3 [13]
  growth at 10 µM: -53%
SN12C [14]
  growth at 100 µM: -53%
NCI-H226
  growth at 0.01 µM: 97%
UO-31 [15]
  growth at 10 µM: 31%
ACHN
  growth at 1 µM: 91%
TK-10
  growth at 100 µM: -62%
HOP-62
  growth at 100 µM: -59%
